Values of other authors in patent US20070059354A1 (priority 2005, published 2007).

For `NC(=O)N1c2ccccc2CC(=O)c2ccccc21` [Oxcarbazepine], the solubility in water is given as “practically insoluble in water”.
